# ChEMBL document CHEMBL1145579, “Development of potent and selective small-molecule human Urotensin-II antagonists” (Bioorg Med Chem Lett, 2008)
# Assays:
# [1] = Binding affinity at batrachotoxinin sensitive Sodium channel in rat brain; type: tissue-based
# Urotensin-2 receptor = molecular target: T1, Urotensin-2 receptor (Homo sapiens, UniProt Q9UKP6); test: Displacement of [125I]hU-2 from human recombinant Urotensin 2 receptor expressed in HEK293 cells; type: cell-based
# T1 sequence (Q9UKP6 whole entry): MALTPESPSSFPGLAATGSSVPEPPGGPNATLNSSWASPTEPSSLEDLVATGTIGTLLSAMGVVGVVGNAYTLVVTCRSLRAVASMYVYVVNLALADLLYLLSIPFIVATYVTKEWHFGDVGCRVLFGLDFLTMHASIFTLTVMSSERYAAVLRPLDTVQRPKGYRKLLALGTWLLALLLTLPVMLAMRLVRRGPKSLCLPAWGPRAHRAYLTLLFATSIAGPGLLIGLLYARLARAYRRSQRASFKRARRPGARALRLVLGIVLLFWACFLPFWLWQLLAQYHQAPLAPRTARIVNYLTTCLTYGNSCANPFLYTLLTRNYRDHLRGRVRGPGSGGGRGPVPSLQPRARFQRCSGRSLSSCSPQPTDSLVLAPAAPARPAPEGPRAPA
# [2] = Half life in rat at 2 mg/kg, iv and 4 mg/kg, po; type: ADME, organism-based; conditions: in vivo
# [3] = Volume of distribution at steady state in rat at 2 mg/kg, iv and 4 mg/kg, po; type: ADME, organism-based; conditions: in vivo, read-out: Vdss
# Cytochrome P450 2D6 = Cytochrome P450 2D6 (Homo sapiens, UniProt P10635); test: Inhibition of CYP2D6; type: ADME
# Sequence of Cytochrome P450 2D6 (P10635 whole entry): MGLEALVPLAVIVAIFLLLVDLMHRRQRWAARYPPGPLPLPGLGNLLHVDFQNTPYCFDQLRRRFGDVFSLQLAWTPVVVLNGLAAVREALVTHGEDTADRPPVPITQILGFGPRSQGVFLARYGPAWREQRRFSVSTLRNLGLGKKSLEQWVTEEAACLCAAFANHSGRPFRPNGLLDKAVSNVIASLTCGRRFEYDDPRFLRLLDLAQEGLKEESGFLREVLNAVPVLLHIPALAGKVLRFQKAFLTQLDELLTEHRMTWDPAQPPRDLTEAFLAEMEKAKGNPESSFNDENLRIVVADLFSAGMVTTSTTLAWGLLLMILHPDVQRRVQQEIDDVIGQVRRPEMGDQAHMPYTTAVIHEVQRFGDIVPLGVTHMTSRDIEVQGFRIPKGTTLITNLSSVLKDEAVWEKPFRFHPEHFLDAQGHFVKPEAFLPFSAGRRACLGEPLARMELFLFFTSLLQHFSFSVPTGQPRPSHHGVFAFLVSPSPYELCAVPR
# [4] = Cmax in rat at 2 mg/kg, iv and 4 mg/kg, po; type: ADME, organism-based; conditions: in vivo
# [5] = molecular target: Kappa-type opioid receptor (Homo sapiens, UniProt P41145); test: Agonist activity at kappa opioid receptor; type: functional
# Sequence of Kappa-type opioid receptor (P41145 whole entry): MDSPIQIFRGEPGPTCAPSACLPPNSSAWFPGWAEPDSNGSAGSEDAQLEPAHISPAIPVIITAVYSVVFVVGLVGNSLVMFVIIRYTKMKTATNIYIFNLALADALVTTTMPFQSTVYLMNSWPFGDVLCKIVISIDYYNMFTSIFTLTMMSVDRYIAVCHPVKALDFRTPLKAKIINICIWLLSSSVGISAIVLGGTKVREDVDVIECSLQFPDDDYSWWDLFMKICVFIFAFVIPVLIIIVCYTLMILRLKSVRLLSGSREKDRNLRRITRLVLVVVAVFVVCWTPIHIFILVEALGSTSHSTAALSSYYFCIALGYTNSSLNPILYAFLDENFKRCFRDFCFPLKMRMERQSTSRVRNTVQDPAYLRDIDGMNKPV
# [6] = Oral bioavailability in rat at 4 mg/kg, po; type: ADME, organism-based; conditions: in vivo
# [7] = Clearance in rat at 2 mg/kg, iv and 4 mg/kg, po; type: ADME, organism-based; conditions: in vivo
# Cytochrome P450 3A4 = Cytochrome P450 3A4 (Homo sapiens, UniProt P08684)
# Sequence of Cytochrome P450 3A4 (P08684 whole entry): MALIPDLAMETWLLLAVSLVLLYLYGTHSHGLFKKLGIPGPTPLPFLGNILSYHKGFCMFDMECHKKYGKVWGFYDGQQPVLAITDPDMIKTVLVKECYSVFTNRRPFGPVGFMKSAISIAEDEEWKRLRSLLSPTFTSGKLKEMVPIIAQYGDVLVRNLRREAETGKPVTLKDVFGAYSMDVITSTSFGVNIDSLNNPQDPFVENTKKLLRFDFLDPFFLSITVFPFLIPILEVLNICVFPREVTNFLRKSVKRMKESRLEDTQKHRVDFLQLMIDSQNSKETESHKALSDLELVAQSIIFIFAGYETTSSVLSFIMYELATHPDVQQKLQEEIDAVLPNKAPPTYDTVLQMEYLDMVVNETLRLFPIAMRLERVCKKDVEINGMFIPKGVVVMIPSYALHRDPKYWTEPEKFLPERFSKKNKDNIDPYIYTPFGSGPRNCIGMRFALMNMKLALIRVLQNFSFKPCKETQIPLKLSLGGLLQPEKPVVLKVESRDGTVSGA
# [8] = molecular target: T2, Urotensin-2 receptor (Rattus norvegicus) (UniProt P49684); test: Binding affinity at Urotensin 2 receptor in rat aorta.
# T2 sequence (whole entry): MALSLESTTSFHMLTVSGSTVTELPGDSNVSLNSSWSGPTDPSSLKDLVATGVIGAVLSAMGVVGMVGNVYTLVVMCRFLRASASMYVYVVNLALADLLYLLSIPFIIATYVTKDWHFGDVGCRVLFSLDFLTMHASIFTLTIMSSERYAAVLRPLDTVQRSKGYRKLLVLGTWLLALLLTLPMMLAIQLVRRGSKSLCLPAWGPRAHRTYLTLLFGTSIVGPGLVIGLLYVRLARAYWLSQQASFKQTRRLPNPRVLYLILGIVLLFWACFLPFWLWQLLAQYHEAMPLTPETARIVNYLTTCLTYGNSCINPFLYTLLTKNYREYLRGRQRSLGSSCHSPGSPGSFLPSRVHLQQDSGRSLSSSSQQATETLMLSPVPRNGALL
SMILES,Ki [1],Ki (Urotensin-2 receptor),half-life [2],Vd [3],IC50 (Cytochrome P450 2D6),Cmax [4],EC50 [5],bioavailability [6],clearance [7],IC50 (Cytochrome P450 3A4),Kb [8]
COCCN(CC(=O)N1CCCC(c2ccccc2)C1CN1CCCC1)c1ccc(Cl)c(Cl)c1 (stereo not given),960 nM,8 nM,2.8 h,27 L/kg,820 nM,95 ng/mL,1000 nM,30%,120 mL/min/kg,,
CN(CC(=O)N1CCCC(c2ccccc2)C1CN1CCCC1)c1ccc(Cl)c(Cl)c1 (racemic),2500 nM,16 nM,3.8 h,23 L/kg,750 nM,100 ng/mL,3200 nM,0%,97 mL/min/kg,1400 nM,28 nM
O=C(Cn1c(=O)sc2ccc(Cl)cc21)N1CCCC(c2ccccc2)C1CN1CCOCC1 (racemic),3500 nM,6 nM,5 h,26 L/kg,8000 nM,160 ng/mL,7900 nM,< 1%,130 mL/min/kg,680 nM,
O=C(Cn1c(=O)sc2ccc(Cl)cc21)N1CCCC(c2ccccc2)C1CN1CCCC1 (racemic),330 nM,1.2 nM,,,1700 nM,,1300 nM,,,1000 nM,
O=C1COc2cc(Cl)c(Cl)cc2N1CC(=O)N1CCCC(c2ccccc2)C1CN1CCCC1 (racemic),680 nM,0.4 nM,,,1600 nM,,500 nM,,,1800 nM,
Cc1cc2ncc(=O)n(CC(=O)N3CCCC(c4ccccc4)C3CN3CCOCC3)c2cc1C (racemic),6900 nM,5 nM,,,6700 nM,,30000 nM,,,2700 nM,
O=C(Cn1c(=O)cnc2cc(Cl)c(Cl)cc21)N1CCCC(c2ccccc2)C1CN1CCOCC1 (racemic),18000 nM,3 nM,,,21000 nM,,15000 nM,,,1000 nM,
O=C(Cn1c(=O)cnc2cc(Cl)c(Cl)cc21)N1CCCC(c2ccccc2)C1CN1CCCC1 (racemic),930 nM,0.6 nM,,,2900 nM,,3200 nM,,,1200 nM,
O=C(Cn1c(=O)oc2ccc(Cl)cc21)N1CCCC(c2ccccc2)C1CN1CCCC1 (racemic),150 nM,5 nM,,,2200 nM,,5000 nM,,,2100 nM,
Cc1cc2c(cc1C)N(CC(=O)N1CCCC(c3ccccc3)C1CN1CCCC1)C(=O)CO2 (racemic),390 nM,0.4 nM,,,5100 nM,,5000 nM,,,3900 nM,
Cc1cc2ncc(=O)n(CC(=O)N3CCCC(c4ccccc4)C3CN3CCCC3)c2cc1C (racemic),1400 nM,1 nM,,,8400 nM,,6300 nM,,,6800 nM,
N#CCN(CC(=O)N1CCCC(c2ccccc2)C1CN1CCCC1)c1ccc(Cl)c(Cl)c1 (racemic),1600 nM,2 nM,3.2 h,27 L/kg,2300 nM,120 ng/mL,790 nM,12%,100 mL/min/kg,1100 nM,5 nM
N#CCN(CC(=O)N1CCCC(c2ccccc2)C1CN1CCOCC1)c1ccc(Cl)c(Cl)c1 (racemic),4000 nM,6 nM,2.6 h,8 L/kg,3700 nM,370 ng/mL,5000 nM,7%,60 mL/min/kg,490 nM,
O=C1COc2cc(Cl)c(Cl)cc2N1CC(=O)N1CCCC(c2ccccc2)C1CN1CCOCC1 (racemic),1300 nM,2 nM,,,4800 nM,,7900 nM,,,730 nM,
CN(CC(=O)N1CCCC(c2ccccc2)C1CN1CCOCC1)c1ccc(Cl)c(Cl)c1 (racemic),1600 nM,79 nM,,,2300 nM,,1000 nM,,,,
COCCN(CC(=O)N1CCCC(c2ccccc2)C1CN1CCOCC1)c1ccc(Cl)c(Cl)c1 (racemic),3200 nM,130 nM,,,3200 nM,,10000 nM,,,480 nM,
O=C(Cn1c(=O)oc2ccc(Cl)cc21)N1CCCC(c2ccccc2)C1CN1CCOCC1 (racemic),730 nM,40 nM,,,3500 nM,,1300 nM,,,1300 nM,
